The structures appear in SMILES notation. Where two headings read alike, the source gives them in different places. Marks after values point to notes of the source that are not given here.

One data set relates to HRPA cells. As to conditions: preclinical observations, Janssens and Boeynaems (2001); Fang et al. (1992); cited from earlier work.
The test system of the next data set is bone metastases. The experiment in a line: Clinical outcome in patients (bone pain, energy, bone scan). The data set is classed as in vivo, human. As to conditions: Patient 1. An excerpt:
(§1) Patients were consenting adult patients with histologically/cytologically confirmed advanced hormone-refractory prostate cancer not curable by conventional therapies that fulfilled the standard phase 1 liver, renal and Karnofsky performance eligibility requirements. The patients also had to meet one of the two following requirements. A positive bone scan and/or imaging study for bone metastasis with accompanying bone pain had to be present with rising PSA values, identified in three consecutive PSA observations, following definitive surgery and/or radiation therapy and anti-androgen hormonal therapy. PSA levels (>10 ng/ml) and a positive bone scan and bone pain at time of initial diagnosis.

In data set [1] the test system is hormone-refractory prostate adenocarcinoma (HRPA). In words: Blood PSA response in hormone-refractory prostate cancer patients with bone metastasis. In kind it is in vivo, human. The procedure:
Treatment of hormone-refractory prostate adenocarcinoma (HRPA) patients presents a complex combination of tumor and pain management. […] HRPA outcomes and PSA measurements were determined pre- and post-treatment within 25–45 days after Sm-153 administration.
[formula] PSA decreases of greater than 50% from baseline are associated with improved survivals in prostate cancer patients [Zyskowski, et al. (2001) Australas Radiol. 45:39; Kelly, et al. (1993) J. Clin. Oncol. 11:607).
The change in PSA was expressed as a ratio rather than a strict difference due to assumed relative changes. Furthermore, assumed multiplicative error provided that the variation of PSA levels increased with an increase in PSA levels. The combination of these two assumptions provided that the PSA responses be compared on the log scale. Furthermore, it is known that the log scale stabilizes the variance (Rosner, In: Fundamentals of Bio-statistics, 5th edition, Pacific Grove: Duxbury) and it has been observed that the variation in PSA among patients with prostate cancer is higher than in healthy (disease-free) controls.
This regime was maintained until the maximally tolerated dose (MTD) was reached. […]

Data set [2] can be described thus: ATP i.v. infusion dose escalation to maximally tolerated dose (present disclosure). In kind it is in vivo, human. The note with it: duration 8 hours.
Excerpt: (§2) This regime was maintained until the maximally tolerated dose (MTD) was reached.
as §1
Average patient age was between 50 and 85 years of age. Patients were excluded if they met the standard phase 1 respiratory and cardiac exclusion criteria.
ATP infusion therapy was as described above.

A short description of data set [3]: Monitoring of patients for adverse effects / tolerability. The data set is classed as in vivo, human.
Excerpt: as §2

The conditions of data set [4]: cited from earlier work.

In the case of `Nc1ncnc2c1ncn2[C@@H]1O[C@H](COP(=O)(O)OP(=O)(O)OP(=O)(O)O)[C@@H](O)[C@H]1O` [ATP, Adenosine triphosphate], the “effect on HRPA cells in vitro” value in the data set with HRPA cells was “inhibits”. Further, the “energy levels, exercise and activity” value in the data set on bone metastases (eighth week, 100 μg/kg/min × 8 hours) was “improved energy levels at home and improved exercise and activity”. Further, the bone pain entry with bone metastases (end of the eight weeks of ATP therapy) is recorded as “continued to have bone pain”. In data set [1] (Patient 1, eight weekly i.v. ATP infusions, no Sm-153, PSA at start 2732 ng/ml), the “rate of PSA level increase during ATP treatments” value is listed as “stabilized”. Further, the “PSA levels during ATP treatment” value in data set [1] (three advanced prostate cancer patients, i.v. infused ATP) was “stabilized”. Moreover, the MTD was 75 µg/kg/min in data set [2] (Study 2, present disclosure); 100 µg/kg/min in data set [2] (Study 3, present disclosure); 125* μg/kg/min in data set [4] (Study 1, Gaba (1990), incremental i.v. dose levels, each infusion 20 min.); 50 µg/kg/min in data set [4] (Study 4, Haskell et al. (1998), duration 96 hours); 65 to 75 µg/kg/min in data set [4] (Study 5, Agteresch et al. (2000), infused over 30 hours, start 20 μg/kg/min, increments of 10 every 30 minutes); 75 µg/kg/min in data set [4] (Study 6, Haskell et al. (1996), duration 96 hours). The tolerability result in data set [3] (8-hour infusion once weekly at 50 up to 100 μg/kg/minute) is on record as “well tolerated by most patients”. For the same compound, the “hematocrit NADIR” value in data set [3] (Patient 1, 33% at start of trial, transfusion given at nadir) came out at 25%. For the same compound, the “side effects of ATP infusion” value in data set [3] (Patient 1, eight weekly i.v. infusions) is recorded as “minor side effects”.

(Values after patent publication US7148210B2, “Method of treating bone metastasis” (Trustees of Dartmouth College, priority 2002, dated 2006).)
